In this assay the target is T1, dopamine transporter (DAT) (Homo sapiens, UniProt Q01959).
T1 construct: gene SLC6A3; human recombinant, CHO cells
Kind of assay: Cerep DAT affinity assay, human recombinant CHO cells (called radioligand in the Discussion, functional in Methods). The assay is classed as binding.

Each structure is given as a SMILES string. Where a name gives a salt, the structure may show the parent alone.

T1 sequence (Q01959 whole entry): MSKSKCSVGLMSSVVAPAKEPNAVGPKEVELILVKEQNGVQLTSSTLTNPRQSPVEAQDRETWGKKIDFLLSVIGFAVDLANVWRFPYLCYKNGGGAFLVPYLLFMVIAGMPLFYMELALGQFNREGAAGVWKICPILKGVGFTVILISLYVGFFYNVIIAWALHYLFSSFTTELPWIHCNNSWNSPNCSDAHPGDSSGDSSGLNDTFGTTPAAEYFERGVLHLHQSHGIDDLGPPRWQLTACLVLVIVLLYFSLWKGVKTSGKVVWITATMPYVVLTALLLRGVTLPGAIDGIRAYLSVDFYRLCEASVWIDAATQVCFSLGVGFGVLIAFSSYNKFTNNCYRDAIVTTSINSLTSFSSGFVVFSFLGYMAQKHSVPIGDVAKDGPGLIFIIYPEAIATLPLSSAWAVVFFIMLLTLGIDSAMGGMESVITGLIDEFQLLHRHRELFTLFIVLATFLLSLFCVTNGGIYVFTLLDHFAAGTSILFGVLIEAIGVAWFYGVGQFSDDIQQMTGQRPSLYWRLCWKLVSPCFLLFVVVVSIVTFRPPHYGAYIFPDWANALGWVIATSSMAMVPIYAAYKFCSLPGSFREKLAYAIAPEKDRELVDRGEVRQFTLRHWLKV

For `Cc1[nH]c2ccc(Cl)cc2c1C1=CCNCC1` [EMD 386088, 5-chloro-2-methyl-3-(1,2,3,6-tetrahydro-4-pyridinyl)-1H-indole hydrochloride], the Ki amounted to 0.041 µM.

The Ki is the dissociation constant of the complex between target and ligand, obtained from inhibition or displacement.

Values taken from PMC4939156, “Study of a mechanism responsible for potential antidepressant activity of EMD 386088, a 5-HT6 partial agonist in rats” (Naunyn-Schmiedeberg's Archives of Pharmacology, 2016).
